In US6399568B1, “Cyclic tetrapeptide derivatives and medicinal use thereof” (Japan Energy Corporation, priority 1997, dated 2002):
Non-standard residues stand in square brackets, D forms with d. Residues, ends and D or L forms follow the SMILES beside them. ξ: configuration not given here. *: point of attachment. d1Nal = N[C@H](Cc1cccc2ccccc12)C(=O)O; Asu = N[C@@H](CCCCCC(=O)O)C(=O)O; Ile(3ξ) = CCC(C)[C@H](N)C(=O)O; Pip = O=C(O)[C@@H]1CCCCN1; dPip = O=C(O)[C@H]1CCCCN1; BrAc = O=C(CBr)*; Sar = CNCC(=O)O; For = O=C*; NHOH = ON*

What follows are compounds tested on B16/BL6 cells (assay: MHC class-I molecule expression promoting activity). Conditions: allowed to act on animal cells (summary statement).
Assay type: cell-based, mouse
Protocol: The cancer cells used were mouse melanoma cells, B16/BL6 cells, provided by, the National Cancer Institute, U.S.A. Said cells were cultivated in MEM media supplemented with 10% FBS at 37° C. in the presence of 5% carbon dioxide in an humidified incubator.
A compound to be tested was preliminarily dissolved in dimethyl sulfoxide (DMSO) and adjusted to a concentration of 100 mM or 10 mM (source solution).
Said B16/BL6 cells were inoculated on 96 well microplate at a cell density of 5000 cells per well, each well containing 200 μl of said medium. […] Thereafter, each well was once washed with PBS (phosphate buffered saline) and floating cells and the medium were removed. Then, the well was treated with 0.1% glutaraldehyde solution for 3 minutes to fix the cells.
The amount of MHC class-I molecule expressed on the surface of the fixed cells was measured by the following method. Anti-H-2K^bD^bD^d antibody, which is an antibody against mouse MHC classI molecule (commercially available from Meiji Milk Co., Ltd), was used as a primary antibody, biotinylated anti-mouse IgG+M (commercially available from Chemicon) was used as a secondary antibody, and streptavidin-β-galactosidase conjugate (commercially available from BRL) was reacted as a labelling enzyme. The amount of the thus labelled enzyme β-galactosidase was measured in a microplate reader by recording the fluorescent intensity (excitation: 365 nm, fluorescence: 450 nm) derived from the enzymaticreaction product using 4-methylumbelliferyl-β-D-galactoside (commercially available from Nacalai Tesque) as a substrate. […] The value obtained by subtracting said background level from the, actually measured value (an apparent value including the background level) was the true measurement reflecting the amount of expressed MHC class-I molecule.
A group without the addition of any compound to be tested was used as a reference group and the measurement of MHC class-I molecule expressed in said group was used as a standard value. The amount of MHC class-I molecule expressed at a concentration of addition of each test compound is shown as a relative amount, said standard value taken as one (1). For each compound to be tested, various concentrations of addition were selected to investigate the dependency of MHC class-I molecule expression promoting action on the concentration of addition.

Structure (SMILES) | MHC class-I molecule expression promoting activity
CCCC(=O)O [butyric acid, reference compound] | exhibit the MHC class-I molecule expression promoting activity

Same assay, conditions: mean of a plurality of assays; 72 hours

Structure (SMILES) | conc. for 2-fold expression (nM) mean
CC(=O)NC(CCCCCC(=O)NO)C(=O)NCc1ccccc1 (stereo not drawn) [Ac-Asu(NHOH)-NH-Bzl, reference compound] | 2410 nM
CC(C)C[C@@H]1NC(=O)[C@H](Cc2cn(C=O)c3ccccc23)NC(=O)[C@H](CCCCCC(=O)NO)NC(=O)[C@H]2CCCCN2C1=O [HDA-16, cyclo(-L-Asu(NHOH)-L-Trp(CHO)-L-Leu-D-Pip-)] (cyclo([Asu](NHOH)W(For)L[dPip])) | toxic
O=C(CBr)NCCCC[C@@H]1NC(=O)[C@H]2CCCN2C(=O)[C@H](Cc2ccccc2)NC(=O)[C@H](Cc2ccccc2)NC1=O [HDA-26, cyclo(-L-Lys(BrAc)-L-Phe-L-Phe-D-Pro-)] (cyclo(FF[dP]K(BrAc))) | 5660 nM
CC(C)C[C@@H]1NC(=O)[C@H](Cc2c[nH]c3ccccc23)NC(=O)[C@H](CCCCCC(=O)NO)NC(=O)[C@H]2CCCCN2C1=O [HDA-33, cyclo(-L-Asu(NHOH)-L-Trp-L-Leu-D-Pip-)] (cyclo([Asu](NHOH)WL[dPip])) | weak
CN1CC(=O)N[C@@H](CCCCCC(=O)NO)C(=O)N[C@@H](Cc2ccccc2)C(=O)N[C@@H](Cc2ccccc2)C1=O [HDA-40, cyclo(-L-Asu(NHOH)-L-Phe-L-Phe-Sar-)] (cyclo([Asu](NHOH)FF[Sar])) | 748 nM
COc1ccc(C[C@H]2NC(=O)[C@H](CCCCCC(=O)NO)NC(=O)[C@H]3CCCN3C(=O)[C@H](C)NC2=O)cc1 [HDA-44, cyclo(-L-Asu(NHOH)-D-Tyr(Me)-L-Ala-D-Pro-)] (cyclo(A[dP][Asu](NHOH)[dY](Me))) | 35.00 nM
C[C@@H]1NC(=O)[C@@H](Cc2ccccc2)NC(=O)[C@H](CCCCCC(=O)NO)NC(=O)[C@H]2CCCN2C1=O [HDA-45, cyclo(-L-Asu(NHOH)-D-Phe-L-Ala-D-Pro-)] (cyclo(A[dP][Asu](NHOH)[dF])) | 23.1 nM
CCC(C)[C@@H]1NC(=O)[C@@H](Cc2ccccc2)NC(=O)[C@H](CCCCCC(=O)NO)NC(=O)[C@H]2CCCN2C1=O (stereo partly drawn) [HDA-46, cyclo(-L-Asu(NHOH)-D-Phe-L-Ile-D-Pro-)] (cyclo([Asu](NHOH)[dF][Ile(3ξ)][dP])) | 1.96 nM
CCC(C)[C@@H]1NC(=O)[C@@H](Cc2cccc3ccccc23)NC(=O)[C@H](CCCCCC(=O)NO)NC(=O)[C@H]2CCCN2C1=O (stereo partly drawn) [HDA-47, cyclo(-L-Asu(NHOH)-D-Naf-L-Ile-D-Pro-)] (cyclo([Asu](NHOH)[d1Nal][Ile(3ξ)][dP])) | 9.59 nM
CCC(C)[C@@H]1NC(=O)[C@@H](Cc2ccc3ccc4cccc5ccc2c3c45)NC(=O)[C@H](CCCCCC(=O)NO)NC(=O)[C@H]2CCCN2C1=O (stereo partly drawn) [HDA-48, cyclo(-L-Asu(NHOH)-D-Pya-L-Ile-D-Pro-)] | 0.846 nM
CC(C)C[C@@H]1NC(=O)[C@@H](Cc2ccccc2)NC(=O)[C@H](CCCCCC(=O)NO)NC(=O)[C@@H]2CCCCN2C1=O [HDA-53, cyclo(-L-Asu(NHOH)-D-Phe-L-Leu-L-Pip-)] (cyclo([Asu](NHOH)[dF]L[Pip])) | 19.8 nM
O=C(CCCCCc1ccccc1)NO [Ph-(CH2)5-CONHOH, reference compound] | 11400 nM
O=C(NO)c1ccccc1 [benzohydroxamic acid, reference compound] | 35800 nM
O=C(O)c1ccccc1 [benzoic acid, reference compound] | >200000 nM
NC(=O)c1cccnc1 [nicotinamide, reference compound] | >1000000 nM
O=C(NO)c1cccnc1 [nicotinic acid hydroxamate, reference compound] | 28000 nM
O=C(O)c1cccnc1 [nicotinic acid, reference compound] | >1000000 nM
